Source: publication PMC4915154, “Development of background-free tame fluorescent probes for intracellular live cell imaging” (Nature Communications, 2016)

Key:
[1] = system: U-2 OS and CHO cell lines; assay: Cellular retention and efflux characteristics test (before/after washing imaging, retaining ratio RR); format: cell-based, human (U-2 OS), Chinese hamster (CHO); conditions: 30 min; for Experimentally observed group: U-2 OS and CHO cell lines, probe 1 μM, imaged before and 10 min after washing; for Cellular retention after washing (probe signal): CHO and U-2 OS cells, 1 uM probe
Description: To expedite an efficient strategy for ‘tame' probe development, we set up a system to predict cellular properties of fluorescent probes via phenotypic high-throughput screening (HTS), cheminformatics and statistical analysis (Fig. 1a). As the first step, we conducted phenotypic HTS to investigate cell permeability and nonspecific binding properties of the probes in a training set. We tested about 2,085 probes consisted of a wide range photophysical properties from numerous fluorophore cores such as BODIPY[12][13][14][15], xanthone, rosamine, cyanine[19][20] and ACEMAN[21]. Their cellular influx and efflux profiles were examined in two types of mammalian cells, U-2 OS and CHO. These cell lines were chosen due to their flexibility in genetic manipulation, adaptability to various culture conditions and versatility in wide biomedical research such as gene expression, toxicity screening, recombinant protein and live cell imaging. Each of the probes was added into live cells and cell image was taken after 30 min by ImageXpress Micro cellular imaging system (Molecular Device). The cells were then washed with fresh growth media, and after another 10 min, a second image was taken to check the completeness of probe washing out of the cell. The first and second imaging facilitated influx (before washing, BW) and efflux (after washing, AW) measurements, respectively (Supplementary Fig. 1).
To measure the influx and efflux of the probes, an automated quantitative intensity-based image analysis was then performed by Multi-Wavelength Cell Scoring analysis using MetaXpress High Content Image software. Retaining ratio (RR, per cent ratio of the average intensity of AW image over BW image) was computed to classify probes into the three phenotypic groups. For each cell in the image, the nuclei and cell region were segmented to provide approximate cellular boundaries. Fluorescence intensity was then quantified on a cell-by-cell basis by the following steps: (i) selecting the image of interest, (2) specifying the width of the stained cell area, (3) adjusting the intensity above local background for detection specificity, and (4) calculating fluorescence intensity with specified reporting parameters. Average fluorescence intensity for each BW and AW images was calculated for each probes and cell lines, and was then used as input in RR calculation (Supplementary Figs 2 and 3).
U-2 OS, a human osteosarcoma cell line, and CHO, a Chinese hamster ovary cell line, (from ATCC) were cultured in Dulbecco's modified eagle's medium (DMEM) (Invitrogen, CA, USA) supplemented with fetal bovine serum (FBS) (10%) and penicillin–streptomycin (1%). Materials used in the cell culture were purchased from Invitrogen. U-2 OS and CHO cells were seeded onto 96-well plate in growth media at 37 °C in the presence of 5% CO2 and were then allowed to attach and grow to 70–80% confluence. Library probes were dissolved in dimethylsulfoxide (DMSO) to make the 1 mM solution, and stored in −20 °C. Before HTS experiment, the growth media was aspirated and replaced by 200 μl fresh growth media containing probes in final concentration of 1 μM and nuclei dye Hoechst 33342. Plates were incubated for 30 min at 37 °C then were imaged using ImageXpress Micro cellular imaging system (Molecular Device) with × 10 objective lens. Immediately after image acquisition, the cells were washed with fresh growth media, and transferred back to a 37 °C cell incubator for further incubation. After 10 min, cells were again imaged (AW image). The first imaging step allowed influx measurement of BW image , while the second imaging step allowed out-flux measurement of AW image. Images of two regions per well were acquired with DAPI, FITC, TRITC or Texas Red filter sets according to probes' excitation and emission wavelength. Experiment was performed in duplicate. Cellular retention and efflux characteristics test for other synthesized probes were also done by using the same protocol. […]

[2] = system: azide-tagged intracellular organelles in U-2 OS cells; assay: Live cell SPAAC labelling of azide-tagged organelles (mitochondria, lysosome, golgi apparatus); format: cell-based, human; conditions: U-2 OS cells pre-treated with TPP-Az, Sphingo-Az or Morph-Az, 2 μM probe, 1 h, 37 °C
Description: Next, we investigated intracellular imaging in live cells using CO-1. We synthesized various azide-bearing reporters: TPP-Az, a triphenylphosphonium analogue which accumulates in mitochondria; Sphingo-Az, a ceramide analogue to target golgi apparatus; and Morph-Az, an azide derivative with morpholine moiety as a directing group for lysosome (Fig. 3a). SPAAC covalent labelling reactions between CO-1 and all azide reporters in vitro were clean and rapid. We anticipated that the cell permeable CO-1 is capable of labelling any azide reporters effectively, regardless the reporters' cellular localization. We added 2 μM CO-1 to the growth media of U-2 OS cells pre-treated with TPP-Az, Sphingo-Az or Morph-Az separately. Confocal fluorescence images were then taken after probe washing.
Figure 3 Live cell imaging with CO-1. (a) Chemical structures and schematic illustration of the covalent labelling of azide-tagged organelles using CO-1 in live cells. (b) Fluorescence imaging of mitochondria, lysosome and golgi apparatus in U-2 OS cells labelled with CO-1. Cells pre-treated with TPP-Az, Morph-Az or Sphingo-Az were incubated with 2 μM CO-1 in growth media at 37 °C for 1 h and followed by counterstaining with organelle trackers. Scale bar, 15 μm. (c) Fluorescence imaging of histone H2B in live U-2 OS. U-2 OS cells were co-transfected with plasmids pIre-Azi3 and pmH2B-6-mKate2-16tag to incorporate UAA Azi into H2B-mKate2 at site 16. After Azi incorporation, cells were labelled with 10 μM CO-1 for 90 min at 37 °C. Cells were then washed and imaged. The mKate2 (red) signals were detected in cell nuclei only, and colocalized with the CO-1 (green) signals in the merged image. Scale bar, 5 μm.
U-2 OS cells were treated with 5 μM TPP-Az, in culture media for 2 h at 37 °C. After incubation, cells were washed and added with 2 μM CO-1 probe. Labelling was allowed to proceed for 1 h at 37 °C in the incubator chamber. […]
Fluorescence imaging of mitochondria, lysosome and golgi apparatus in U-2 OS cells labeled with CO-1H. […] In contrast to CO-1, high fluorescence background from CO-1H was observed. […]

[3] = Spectroscopic properties (absorbance, emission, extinction coefficient, quantum yield); format: physicochemical; conditions: 10 μM in DMSO
Procedure: Supplementary Table 9. Spectrocopic properties and purity table for CO-1 and CO-1H.
Calculated mass, experimental mass, absorbance maximum (λabs), fluorescent emission maximum (λem), extinction coefficient (ε), quantum yield (Φ), and purity. mass m/z λabs λem ε Purity […]
Absorbance and fluorescence emission data were recorded by a Synergy 4, Biotek Inc. fluorescent plate reader at 10 μM concentration in DMSO in 96-well plates. HRMS a: found mass (M-H), b: tetramethyl BODIPY was used as standard, c: purity data was calculated on the basis of the integration in HPLC trace at 254 nm.

Row | SMILES | Experimentally observed group [1] | other results
1 | Cc1cc(/C=C/c2ccc(B(O)O)cc2)n2c1C(c1ccc(N)cc1)=C1C=CC=[N+]1[B-]2(F)F [BOR-1H] | H-group (those with RR >5% were classified into H-group) | –
2 | Cc1cc(/C=C/c2ccc(B(O)O)cc2)n2c1C(CCC(=O)N1CCOCC1)=C1C=CC(CCC(=O)N(C)C)=[N+]1[B-]2(F)F [BOR-1] | L-group (Probes (FI(BW) >200) with rapid efflux were observed to have a RR of <5%, and thus were classified into L-group) | Cellular retention after washing (probe signal) [1]: significantly decreased after washing
3 | COC(=O)c1ccc(C2=C3C(C)=CC(C)=[N+]3[B-](F)(F)n3c(/C=C/c4ccc(B(O)O)cc4)cc(C)c32)cc1 [BOR-2H] | H-group (those with RR >5% were classified into H-group) | –
4 | Cc1cc(C)n2c1C(CCC(=O)N1CCOCC1)=C1C=CC(CCC(=O)NCCC(=O)N3Cc4ccccc4C#Cc4ccccc43)=[N+]1[B-]2(F)F [CO-1H] | H-group (those with RR >5% were classified into H-group) | Cellular retention after washing (probe signal) [1]: retained inside the cells; Fluorescence background after washing [2]: high-fluorescence background; ε [3]: 83333 M⁻¹ cm⁻¹; λabs [3]: 500 nm; λem [3]: 520 nm; QY (Φ) ([3]; tetramethyl BODIPY as standard): 0.83
5 | NCCNC1=C2C=CC=[N+]2[B-](F)(F)n2cccc21 [CS-2] | L-group (Probes (FI(BW) >200) with rapid efflux were observed to have a RR of <5%, and thus were classified into L-group) | –
6 | CCc1c(C)c2n(c1C)[B-](F)(F)[N+]1=CC=CC1=C2SC [CS-3] | L-group (Probes (FI(BW) >200) with rapid efflux were observed to have a RR of <5%, and thus were classified into L-group) | –
7 | CCc1c(C)c2n(c1C)[B-](F)(F)[N+]1=CC=CC1=C2 [CS-8] | L-group (Probes (FI(BW) >200) with rapid efflux were observed to have a RR of <5%, and thus were classified into L-group) | –
8 | COC1=C2C=CC(C)=[N+]2[B-](F)(F)n2c(C)ccc21 [CS-11] | L-group (Probes (FI(BW) >200) with rapid efflux were observed to have a RR of <5%, and thus were classified into L-group) | –
9 | F[B-]1(F)n2cccc2C(N2CCOCCOCCOCC2)=C2C=CC=[N+]21 [CS-13] | L-group (Probes (FI(BW) >200) with rapid efflux were observed to have a RR of <5%, and thus were classified into L-group) | –
10 | F[B-]1(F)n2cccc2C(N2CCOCCOCCOCCOCC2)=C2C=CC=[N+]21 [CS-14] | N-group (Probes in which BW images having FI(BW) ≤200 were classified as N-group) | –
11 | CC1=[N+]2C(=C(N3CCNCC3)c3ccc(C)n3[B-]2(F)F)C=C1 [CS-42] | L-group (Probes (FI(BW) >200) with rapid efflux were observed to have a RR of <5%, and thus were classified into L-group) | –
12 | CCOC(=O)CCNC1=C2C=CC(CC)=[N+]2[B-](F)(F)n2c(CC)ccc21 [CS-56] | L-group (Probes (FI(BW) >200) with rapid efflux were observed to have a RR of <5%, and thus were classified into L-group) | –
13 | CC(C)(C)NC1=C2C=CC=[N+]2[B-](F)(F)n2cccc21 [CS-101] | L-group (Probes (FI(BW) >200) with rapid efflux were observed to have a RR of <5%, and thus were classified into L-group) | –
